B1: CNTF: ciliary neurotrophic factor, neurotrophin used as positive control for cell differentiation in primary screening (protein, UniProt P26441 1-200, looked up)
Ciliary neurotrophic factor: MAFTEHSPLTPHRRDLCSRSIWLARKIRSDLTALTESYVKHQGLNKNINLDSADGMPVASTDQWSELTEAERLQENLQAYRTFHVLLARLLEDQQVHFTPTEGDFHQAIHTLLLQVAAFAYQIEELMILLEYKIPRNEADGMPINVGDGGLFEKKLWGLKVLQELSQWTVRSIHDLRFISSHQTGIPARGSHYIANNKKM

Legend:
[1] = test system: oligodendrocyte progenitor cells; test: Western blot for myelin proteins PLP/DM20 and CNPase in treated oligodendrocyte progenitor cells; format: cell-based, mouse; settings: Table 3, 10 μM, 48 hrs
Description: (§1) Oligodendrocyte progenitors were generated from embryonic neural progenitors growing in cell aggregates known as neurospheres (Nphs). Nph were prepared from embryos at 14.5 days of gestation obtained from timed pregnant females of either wild type mice or the proteolipid protein-enhanced-green fluorescence protein (Plp-EGFP) transgenic mouse. In brief, after separation of meninges and cerebellum, cerebrum tissue was mechanically triturated with a 1 ml Gilson pipette until total tissue disaggregation was achieved, filtered through a 70 μm cell strainer (Fisher Scientific, Pittsburg, Pa.) and plated in 25 cm^2 plastic culture flasks (2 brains/flask). Nph proliferation media (NPM) was DMEM/F12, B27 neuronal supplement (Gibco, Baltimore, Md.) and 10 ng/ml EGF (Sigma, St. Louis, Mo.). After 48-72 hr, floating Nphs were passaged at a 1:3 ratio in the same medium every 3-4 days. To generate oligodendrocyte progenitors, single cells suspensions were obtained by chemical disgregation with the mouse NeuroCult dissociation kit (StemCell Technologies, Alberta, Canada). The single cell suspension was filtered through a 70 μm cell strainer and plated on 96-well poly-D-Lysine (PDL)-coated plates at a cell density of 1.5×10^4 cells/cm^2. Cells were maintained in NPM supplemented with 10 ng/ml PDGF/bFGF instead of EGF. Bipolar, oligodendrocyte progenitor cells were observed 24 hours after plating. At the Moment of treatment to induce oligodendrocyte progenitor differentiation, the media was changed to OPC differentiation media containing NPM with a 1:10 dilution of PDGF/FGF.
For myelin protein analyses, cells were grown on 100 mm culture plates and after exposure to small molecules or controls were washed twice with ice-cold PBS. RIPA lysis buffer was added to the plates and the cells were scraped, collected and disrupted with a homogenizer on ice. Cell homogenates were then centrifuged at 6,000×g, 10 min, 4° C. and supernatants separated in a fresh tube. After adding Laemli loading buffer, proteins were denaturized at 70° C. for 10 mm and loaded in gradient gels (4-20, Criterion, BioRad, Calif.). Electroforetically separated proteins were electro-transferred to nitrocellulose membranes in a semi-dry apparatus and unspecific bonds were blocked with IRdye blocking solution for at least 1 hr at RT. After washing twice with TBS-T, primary antibodies were added and incubated over night at 4° C. Membranes were incubated with secondary, IRdye-infrared conjugated antibodies for 1 hr at RT and visualized on the Odyssey scanner.
(§2) The primary screening to select positive compounds was performed at a standard concentration of 10 μM with cell morphology analysis 48 hrs after treatment. Dose response curves at 48 hrs treatment time were performed to determine the minimum concentration compounds A, A-7 and B needed to induce cell maturation. We assessed oligodendrocyte differentiation by cell morphology changes, green fluorescence in cells generated from or Plp-EGFP transgenic mouse, immunostaining for myelin proteins and western blot for expression of the oligodendrocyte markers PLP/DM20 and 2′,3′, cyclic nucleotide 3′ phosphohydrolase (CNPase). EC50 values were also calculated based on results of western blot for myelin proteins and subsequent band densitometry analysis. Additionally, we followed cell differentiation induced over long time exposure to compounds A and B (7 days, 0.1-10 μM).

[2] = test system: oligodendrocyte progenitor cells; test: Immunocytochemistry for PLP/DM20 and MBP, count of differentiated cells; format: cell-based, mouse; settings: Table 3, 10 μM, 48 hrs
Description: Immunodetection of oligodendrocyte and myelin markers was performed. In brief, Oligodendrocyte cells plated on PDL-coated dishes were initially fixed in 2% paraformaldehyde (PFA) for 10 min at room temperature (RT) and then 4% PFA for 15 min, washed three times with PBS and permeabilized with 0.1% Triton X100 for 10 min at RT. After blocking with 3% BSA in PBS for 60 min a RT, the cells were incubated with primary antibodies at the indicated concentrations overnight (ON) at 4° C. The cells were washed three times with cold PBS incubated with secondary antibodies for 45 min at RT, and washed again before mounting. Immunostaining of tissue sections prepared with a sliding microtome (30 μm) was performed. In brief, tris buffered saline (TBS) containing 100 nM Sodium fluoride (TBSS) was used the all dilutions and washes. For antigen retrieval, sections were washed 3 times in TBSS, incubated in 5% methanol and 3% H2O2 for 10 min, washed 2 times, and then incubated in 10% Triton X-100 for 20 min. Blocking of unspecific bonds was performed by incubating the tissue sections with 10% NGS for 1 hr. Primary antibodies were diluted in 3% BSA containing 0.02% Triton X-100 and sections were incubated overnight in this solution. The next day the sections were washed 3 times in TBSS, followed by 1 hr incubation in secondary antibodies (1:1000) at 4° C. After several washes, the sections were mounted using Vectashield (Vector Laboratories, Burlingame, Calif.). Visualization of immunostained cells and tissue was performed on a Leica DMR (Wetzlar, Germany) or a Leica SP5 confocal microscope.
as §2
Compound A-7-induced oligodendrocyte progenitor maturation was also analyzed in comparison to control cells in immunostaining experiments to detect the myelin proteins MBP and PLP. Positive cells for these markers showing processes formation and membranous structures were counted versus total cells and counterstained with the nuclear dye Dapi after 48 hrs (Tables 3 and 4) and 7 days treatment with 0.1, 1 or 10 μM compound A-7 (FIG. 2, B).

[3] = test system: oligodendrocyte progenitors; test: Primary/secondary screening: oligodendrocyte progenitor morphology changes and Plp-EGFP fluorescence; format: cell-based, mouse
Description: as §1, with “At the Moment of treatment to induce oligodendrocyte progenitor differentiation, the media was changed to OPC differentiation media containing NPM with a 1:10 dilution of PDGF/FGF.” left out
The small molecule library consists of handcrafted drug-like organic molecules with molecular weight in a range of 250-550, dissolved in DMSO at concentration of 5 mg/ml or […]. Their structure and >95% purity have been validated by NMR. […] Oligodendrocyte progenitor differentiation was scored using as 4 scale values as follows: 1: bipolar, undifferentiated; 2: bipolar to tripolar, initiated differentiation; 3: multibranched, differentiated cells; 4: multibranched, differentiated cells showing membranous structures (FIG. 1).
Differentiation induced by selected compounds was further validated by fluorescence microscopy in cells generated from our Plp-EGFP transgenic mouse. Increased fluorescence in treated oligodendrocyte progenitor was indicative of cell maturation and was again scored following the same scale. […] These were analyzed for cell toxicity assays by MTT were yellow 3-(4,5-Dimethylthiazol-2-yl)-2,5-diphenyltetrazolium bromide, a tetrazole (MTT) is reduced to purple formazan in the mitochondria of living cells, showing a solution color change measurable by OD620-590 (Data not shown). Further oligodendrocyte progenitor maturation in response to selected compounds was assessed by induction of myelin protein expression as determined by immunocytochemistry and western blot. […]

Akt = Akt activity in cell extracts of oligodendrocyte precursors (phosphorylation of Akt substrate GSKα/β); format: cell-based; settings: 10 μM, 48 h
Source text: Oligodendrocyte precursor differentiation requires the activation of a complex, highly controlled machinery that signals cells to stop migrating/proliferating and start extending processes and producing myelin components. A number of inducers and intracellular mediators of this process have been identified in vitro and in viva. […] Therefore, we studied whether our selected small molecules induced Akt signaling in oligodendrocyte precursors. We analyzed Akt activity in cell extracts of oligodendrocyte precursors treated with selected compounds (10 μM, 48 h), as determined by phosphorylation of Akt substrate GSKα/β.

| Molecule | PLP/DM20 Expression (WB, % of Control) [1] | Differentiated Cells (IC, % of Control) [2] | induction of oligodendrocyte precursor maturation [3] | further results |
| --- | --- | --- | --- | --- |
| CCS(=O)(=O)N1CCN(C(=O)COc2ccccc2)CC1 | 148 ± 10.6 n = 2 % of Control | 195 ± 10.9 n = 3; p <0.05 % of Control |  |  |
| CCS(=O)(=O)N1CCN(C(=O)COc2ccc(C)cc2)CC1 | 160.7 ± 8.2 n = 2 % of Control | 207.5 ± 38.2 n = 3; p <0.05 % of Control |  |  |
| CCCS(=O)(=O)N1CCN(C(=O)COc2ccc(OC)cc2)CC1 | 143.0 ± 6.9 n = 2 % of Control | 224.3 ± 66.3 n = 3; p <0.05 % of Control |  |  |
| CC(=O)NC(=Cc1ccc(Cl)cc1)C(=O)N1CCOCC1 [D, N-[2-(4-chlorophenyl)-1-(4-morpholinylcarbonyl)vinyl]acetamide] |  |  | showed induction of oligodendrocyte precursor maturation |  |
| Br.COc1ccc(C2=CSC3=NCCN23)cc1F [F, 3-(3-fluoro-4-methoxyphenyl)-5,6-dihydroimidazo[2,1-b][1,3]thiazole hydrobromide] |  |  | showed induction of oligodendrocyte precursor maturation | Akt phosphorylation (Akt): clearly detected |
| B1 |  |  |  | oligodendrocyte progenitor morphological changes indicative of cell maturation ([3]; positive control, 10 ng/ml, 48 hrs): marked oligodendrocyte progenitor morphological changes |
